The values below come from ChEMBL document CHEMBL3301451, “MMV Malaria Box gametocyte functional viability assay screening”.

Common to all, as to assay type: functional
What all share (parameters): concentration or dose not given beside the values

In experiment [1] the test system is Plasmodium berghei. As to the kind of experiment: MMV: P. berghei-infected blood was withdrawn from mice by cardiac pucture before being immediately added to ookinete culture medium containing test compounds. 26 hr later, GFP-positive ookinetes were identified and counted by automated microscopy. All compounds were tested in 4 independent experiments and data presented here is the mean.

For experiment [2], the system named is Plasmodium falciparum. As to the kind of experiment: MMV: P. falciparum NF54 functionally mature Stage V gametocytes were incubated for 24 hr in the presence of the test compounds. Gamete formation was then triggered by addition of 2uM xantheurenic acid and temperature decrease to ~20C. Female gamete formation was recorded 24 hr later by automated microscopy detection of surface labelling of female gametes with a Cy3-conjugated antibody reactive to Pfs25. All compounds were tested in 4 independent experiments and data presented here is the mean. Particulars: NF54, 24 h.

The test system of experiment [3] is Plasmodium falciparum. As to the kind of experiment: MMV: P. falciparum NF54 functionally mature Stage V gametocytes were incubated for 24 hr in the presence of the test compounds. Gamete formation was then triggered by addition of 2uM xantheurenic acid and temperature decrease to ~20C. Male gamete exflagellation was recorded and analysed by automated microscopy after 20 min. All compounds were tested in 4 independent experiments and data presented here is the mean.

By inhibition is commonly meant the drop in the measured response relative to a control, in per cent. Turning to `CN1CCN(c2ccc(Nc3c4ccccc4nc4ccccc34)cc2)CC1`, the inhibition in experiment [1] was 3.384%; in experiment [2] it was -3.1%; in experiment [3] it was 56.4%.

Consider `COc1ccc(-c2c(C)nn3c(N)c(C#N)cnc23)cc1OC`, for which the inhibition in experiment [1] is 6.903%; in experiment [2] it was -16.8%; in experiment [3], -13.8%.

For the compound `CSC1=NC(=Nc2c(C)cccc2C)C2(CCC(C(C)(C)C)CC2)N1c1ccc(Cl)cc1` (stereo not drawn), the inhibition was 10.1% in experiment [1], -11.8% in experiment [2] and 15.7% in experiment [3].

For the compound `C[n+]1c2ccccc2nc2ccc(NCCO)cc21`, the results for the inhibition in experiment [1], in experiment [2] and in experiment [3] were 4.233%, -21.5% and 33.8%, respectively.

`OC(CNCC1CCCO1)Cn1c2ccc(Cl)cc2c2cc(Cl)ccc21` (stereo not drawn): the inhibition in experiment [1] is 3.62%; in experiment [2], -43.4%; in experiment [3] it was -34.5%.

`c1ccc(/C2=N/c3ccccc3/N=C(/c3ccccc3)c3ccccc32)cc1`: the inhibition came out at 4.56% in experiment [1], 5.88% in experiment [2] and 41.7% in experiment [3].

As for `COc1cc(C(=O)Nc2nc3c(cc4c5c(cccc53)CC4)s2)cc(OC)c1OC`, the inhibition was 5.808% in experiment [1], -22.3% in experiment [2] and -1.82% in experiment [3].

On to `COc1cccc(C2(C)Nc3ccccc3-c3nc4ccccc4n32)c1` (stereo not drawn), for which the values for the inhibition in experiment [1], in experiment [2] and in experiment [3] were 6.874%, 7.61% and -12.6%, respectively.

Consider `O=C1c2ccccc2-c2nnc(-c3ccc(Br)cc3)cc21`, for which the inhibition in experiment [1] was 9.656%; in experiment [2] it was -19.6%; in experiment [3] it was 19.4%.

In the case of `CCOC(=O)C1=C(C)N=c2sc(=Cc3ccccc3O)c(=O)n2C1c1ccc(OC)c2ccccc12` (stereo not drawn), the inhibition in experiment [1] is 3.682%; in experiment [2], -23.7%; in experiment [3], -4.7%.

In the case of `CCOC(=O)C1=C(C)N=c2sc(=Cc3cc(Cl)ccc3O)c(=O)n2C1c1ccc(OC)cc1` (stereo not drawn), the inhibition in experiment [1] was 5.932%; in experiment [2] it was -13%; in experiment [3], -29.2%.

In the case of `Cc1nc2ccccc2c(O)c1CC=C(Cl)Cl`, the results for the inhibition in experiment [1], in experiment [2] and in experiment [3] were 2.285%, -3.75% and 6.46%, respectively.

`COc1ccc2nc(C)cc(Nc3ccc(Cl)cc3)c2c1`: the values for the inhibition in experiment [1], in experiment [2] and in experiment [3] were 4.092%, -15.3% and -17.3%, respectively.

In the case of `CCC(C)NCC(O)(c1ccc(Cl)cc1)c1ccc(Cl)cc1` (stereo not drawn), the inhibition in experiment [1] is 2.874%; in experiment [2], -7.82%; in experiment [3], 25.7%.

For the compound `COc1cc2cc(C(=O)Nc3ccccc3)c(N)nc2cc1OC`, the inhibition in experiment [1] was 8.567%; in experiment [2], -10%; in experiment [3], 22%.

On to `Cn1c(=O)c2cc(C(=O)NCCCN3CCCCCC3)sc2c2ccccc21`, for which the inhibition in experiment [1] was 5.415%; in experiment [2], -16.3%; in experiment [3], 20.7%.

For `COc1ccc(C(=O)NC(c2ccc(Cl)cc2Cl)c2cc(Cl)c3cccnc3c2O)cc1` (stereo not drawn), the inhibition is 1.805% in experiment [1], -10.1% in experiment [2] and -11.1% in experiment [3].

For the compound `O=C(NC(c1ccccc1)c1ccc2cccnc2c1O)c1ccccc1` (stereo not drawn), the inhibition in experiment [1] was 6.162%; in experiment [2], -22.7%; in experiment [3], 5.16%.

For the compound `CC(=O)Nc1nnc(SCc2c(C)cc(C(C)(C)C)cc2C)s1`, the inhibition in experiment [1] turned out to be 4.957%; in experiment [2] it was 5.39%; in experiment [3], 17.4%.

Take `CCN(CC)CCNc1ccnc2cc3ccccc3cc12.O=P(O)(O)O`: the inhibition was 2.138% in experiment [1], -24% in experiment [2] and 9.43% in experiment [3].

`Cc1cc(Nc2cccc(F)c2)nc(NCc2ccccc2)n1`: the inhibition is 4.533% in experiment [1], -45.8% in experiment [2] and 20.4% in experiment [3].

Regarding `O=c1cc(NC2CCN(CCCc3ccccc3)CC2)c2cc(Cl)ccc2o1`, the inhibition in experiment [1] was 7.737%; in experiment [2], -4.85%; in experiment [3], -9.89%.

`CCN(CC)CCNc1ncnc2c1[nH]c1ccc(Br)cc12`: the values for the inhibition in experiment [1], in experiment [2] and in experiment [3] were 9.06%, 13.8% and -106%, respectively.

Turning to `O=C(Nc1ccc(Cl)cc1)N1CCN(c2ccc3nncn3n2)CC1`, the results for the inhibition in experiment [1], in experiment [2] and in experiment [3] were 8.279%, -16.6% and 25.9%, respectively.

As to `CC(C)CCNCC(O)Cn1c2ccccc2c2ccccc21.Cl` (stereo not drawn), the inhibition in experiment [1] was 4.97%; in experiment [2], -12.9%; in experiment [3], -10.1%.

For `CCOc1cc2c(cc1OCC)C(c1cc(Cl)ccc1O)NCC2` (stereo not drawn), the inhibition is 9.631% in experiment [1], -14.7% in experiment [2] and 4.54% in experiment [3].

In the case of `CCCCNCC(O)(c1ccc(Cl)cc1)c1ccc(Cl)cc1`, the inhibition is 10.56% in experiment [1], -11% in experiment [2] and 5.76% in experiment [3].

Turning to `COc1cccc(-c2nn(C)c3sc(C(=O)NCCN4CCN(c5ccccc5F)CC4)cc23)c1`, the inhibition is 2.067% in experiment [1], -2.79% in experiment [2] and 14.1% in experiment [3].

As for `O=C(Nc1ccc(N2CCCCC2)c(Cl)c1)c1ccc(Br)o1`, the inhibition in experiment [1] was 4.656%; in experiment [2], -35.3%; in experiment [3], 41.2%.

As to `Cc1ccc(Cn2c(N3CCC(C(=O)NCc4cccs4)CC3)nc3ccccc32)cc1`, the figures for the inhibition in experiment [1], in experiment [2] and in experiment [3] were 6.449%, -22.4% and 12.1%, respectively.

As to `COc1ccc(C(O)(CCC(C)C)C(CN2CCOCC2)c2ccc(Cl)cc2)cc1.Cl` (stereo not drawn), the values for the inhibition in experiment [1], in experiment [2] and in experiment [3] were 5.473%, 6.32% and -0.282%, respectively.

In the case of `CC(C)OCc1cc(CN2CCN(c3cccc(Cl)c3)CC2)c(O)c2ncccc12`, the results for the inhibition in experiment [1], in experiment [2] and in experiment [3] were 5.6%, -27.4% and 10.1%, respectively.

`O=C(Nc1nc(-c2ccccn2)cs1)c1ccccc1Br`: the inhibition in experiment [1] is 2.456%; in experiment [2] it was -22.2%; in experiment [3], -29.6%.

For `Oc1ccc(C(=C(Cl)Cl)c2ccc(O)cc2)cc1`, the results for the inhibition in experiment [1], in experiment [2] and in experiment [3] were 3.378%, -25.3% and 5.51%, respectively.

On to `CCOc1ccc2c(c1)CN(Cc1ccc(Cl)cc1)CO2`, for which the inhibition is 5.14% in experiment [1], -18.1% in experiment [2] and 18.9% in experiment [3].

As to `CCOc1ccccc1CNC(=O)C1c2ccccc2C(=O)N(CC(C)C)C1c1cccs1` (stereo not drawn), the inhibition was 3.43% in experiment [1], -3.09% in experiment [2] and 15.7% in experiment [3].

For the compound `CC(C)(C)c1ccc2c(c1)CN(Cc1ccc(Cl)cc1)CO2`, the inhibition is 3.358% in experiment [1], 6.43% in experiment [2] and -12.2% in experiment [3].

`O=c1nc(C=Cc2ccc(Cl)cc2)oc2ccccc12`: the inhibition in experiment [1] is 7%; in experiment [2], -1.1%; in experiment [3], 41%.

As to `Cc1cc(=O)oc2c1ccc1oc(C(=O)c3ccccc3)c(C)c12`, the inhibition was 6.058% in experiment [1], -19.6% in experiment [2] and -11.5% in experiment [3].

As to `Cl.OC(CNCc1ccccc1)Cn1c2ccccc2c2ccccc21` (stereo not drawn), the inhibition in experiment [1] is 3.967%; in experiment [2], 11.4%; in experiment [3], -10.2%.

`Cc1ccc(F)cc1NC(=O)c1cc(Cl)ccc1Nc1ccccc1`: the figures for the inhibition in experiment [1], in experiment [2] and in experiment [3] were 6.256%, -12.6% and 43.2%, respectively.

For `Oc1c2c(nc3cc(-c4ccccc4)nn13)CCCC2`, the results for the inhibition in experiment [1], in experiment [2] and in experiment [3] were 4.402%, -27.5% and 1.37%, respectively.

As to `COc1ccc(C)c2sc(N(Cc3cccnc3)C(=O)c3ccc(C#N)cc3)nc12`, the inhibition is 2.145% in experiment [1], -37.8% in experiment [2] and -18.7% in experiment [3].

With `CCOc1ccc(CCNC(=O)c2cccs2)cc1OCC`, the inhibition in experiment [1] was 8.759%; in experiment [2], 2.16%; in experiment [3] it was 22%.

With `CCCN(CCC)CCCNC(=O)c1cc2c(-c3ccc(OC)c(OC)c3)nn(C)c2s1`, the inhibition in experiment [1] was 5.504%; in experiment [2], -7.86%; in experiment [3] it was -20.2%.

As to `CCCCCn1c(=N)n(CC(O)COc2cccc(C)c2)c2ccccc21.Cl` (stereo not drawn), the results for the inhibition in experiment [1], in experiment [2] and in experiment [3] were 6.769%, -30.6% and -6.7%, respectively.

Turning to `O=c1c2c([nH]c3ccccc13)CCCC2`, the figures for the inhibition in experiment [1], in experiment [2] and in experiment [3] were 6.827%, -24.5% and 51%, respectively.

`CN1c2ccccc2N(C)C1c1ccc2c(c1)OCO2`: the values for the inhibition in experiment [1], in experiment [2] and in experiment [3] were 3.083%, -33.5% and 8.56%, respectively.

`CN(C)c1ccc(N=Cc2ccc(N3CCOCC3)cc2)cc1`: the inhibition in experiment [1] is 4.978%; in experiment [2] it was -21.3%; in experiment [3], 34.2%.

As for `c1ccc(Cn2c(N=Nc3c(Nc4ccccc4)ccc4ccccc34)nc3ccccc32)cc1`, the figures for the inhibition in experiment [1], in experiment [2] and in experiment [3] were 7.124%, 7.17% and -0.509%, respectively.

On to `CC(C)(C)c1ccc(C2CC3=Nc4ccccc4N(C(=O)c4ccccc4Cl)C(c4ccc(F)cc4)C3=C(O)C2)cc1` (stereo not drawn), for which the inhibition in experiment [1] was 4.566%; in experiment [2], -44.4%; in experiment [3] it was -39.9%.
